Results reported in PubChem BioAssay AID328 (DTP/NCI, 2004).
Values joined by “and” are separate entries in the source; they are usually repeats but may differ in a detail not shown here. Equal entries are not always repeated. Inconclusive results and toxic doses are left out.

Test system: BDF1 mice, P388 leukemia ip, median survival T/C
Test: NCI In Vivo Anticancer Drug Screen. Data for tumor model P388 Leukemia (intraperitoneal) in B6D2F1 (BDF1) mice
Conditions: endpoint: median survival time, higher = longer survival
How it was run: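 In tumour-bearing mice, survival after compound treatment is set against the vehicle group and given as a quotient.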

[1] = dose: 50.0 mg/kg/injection, schedule: Q01DX009 (ip), vehicle: saline with Tween-80
[2] = dose: 100.0 mg/kg/injection, schedule: Q01DX009 (ip), vehicle: saline with Tween-80
[3] = dose: 200.0 mg/kg/injection, schedule: Q01DX009 (ip), vehicle: saline with Tween-80
[4] = dose: 400.0 mg/kg/injection, schedule: Q01DX009 (ip), vehicle: saline with Tween-80
[5] = dose: 50.0 mg/kg/injection, schedule: Q04DX003 (ip), vehicle: saline
[6] = dose: 100.0 mg/kg/injection, schedule: Q01DX009 (ip), vehicle: saline
[7] = dose: 100.0 mg/kg/injection, schedule: Q04DX003 (ip), vehicle: saline
[8] = dose: 200.0 mg/kg/injection, schedule: Q01DX009 (ip), vehicle: saline
[9] = dose: 200.0 mg/kg/injection, schedule: Q04DX003 (ip), vehicle: saline
[10] = dose: 400.0 mg/kg/injection, schedule: Q04DX003 (ip), vehicle: saline

CC(C)C(C(=O)c1ccccc1)c1ccccc1 (stereo unspecified)
T/C (dose: 25.0 mg/kg/injection, schedule: Q01DX009 (ip), vehicle: saline with Tween-80): 95 % of control
T/C [1]: 109 % of control
T/C [2]: 100 % of control
T/C (dose: 100.0 mg/kg/injection, schedule: Q04DX003 (ip), vehicle: saline with Tween-80): 100 % of control
T/C [3]: 100 % of control
T/C (dose: 200.0 mg/kg/injection, schedule: Q04DX003 (ip), vehicle: saline with Tween-80): 118 % of control
T/C [4]: 100 % of control
T/C (dose: 400.0 mg/kg/injection, schedule: Q04DX003 (ip), vehicle: saline with Tween-80): 100 % of control

CC#CCOCC(O)CCl (stereo unspecified)
T/C [5]: 115 % of control
T/C [6]: 108 % of control
T/C [7]: 95 % of control
T/C [8]: 116 % of control
T/C [9]: 90 % of control
T/C [10]: 112 % of control

CCCCCCCCCSC(=S)N(C)NC(=O)c1ccccn1
T/C [1]: 98 % of control
T/C [2]: 98 % of control

O=C(CCN1CC1)OCCOC(=O)CCN1CC1
T/C (dose: 1.5 mg/kg/injection, schedule: Q01DX009 (ip), vehicle: saline with Tween-80): 112 % of control
T/C (dose: 16.0 mg/kg/injection, schedule: Q04DX003 (ip), vehicle: saline with Tween-80): 150 % of control
T/C (dose: 21.0 mg/kg/injection, schedule: Q04DX003 (ip), vehicle: saline with Tween-80): 163 % of control
T/C (dose: 33.0 mg/kg/injection, schedule: Q04DX003 (ip), vehicle: saline with Tween-80): 163 % of control
T/C (dose: 50.0 mg/kg/injection, schedule: Q04DX003 (ip), vehicle: saline with Tween-80): 195 % of control
T/C (dose: 75.0 mg/kg/injection, schedule: Q04DX003 (ip), vehicle: saline with Tween-80): 181 % of control

N#Cc1nnc2cc[nH]n2c1=O
T/C (dose: 100.0 mg/kg/injection, schedule: Q04DX002 (ip), vehicle: saline with Tween-80): 100 % of control
T/C (dose: 200.0 mg/kg/injection, schedule: Q04DX002 (ip), vehicle: saline with Tween-80): 103 % of control
T/C (dose: 400.0 mg/kg/injection, schedule: Q04DX002 (ip), vehicle: saline with Tween-80): 109 % of control

C=C1[C@@H](O)[C@]2(O)OC[C@@]34[C@H]1[C@@H](OC(=O)C(C)CC)C(=O)O[C@@H]3C[C@H]1C(C)=CC(=O)[C@@H](O)[C@]1(C)[C@@H]24 (stereo partly specified)
T/C (dose: 0.5 mg/kg/injection, schedule: Q01DX009 (ip), vehicle: saline with Tween-80): 184 % of control
T/C (dose: 1.0 mg/kg/injection, schedule: Q01DX009 (ip), vehicle: saline with Tween-80): 159 % of control
T/C (dose: 1.0 mg/kg/injection, schedule: Q01DX009 (ip), vehicle: saline): 153 % of control
T/C (dose: 2.0 mg/kg/injection, schedule: Q01DX009 (ip), vehicle: saline with Tween-80): 178 % of control
T/C (dose: 4.0 mg/kg/injection, schedule: Q01DX009 (ip), vehicle: saline): 166 % of control
T/C (dose: 8.0 mg/kg/injection, schedule: Q01DX009 (ip), vehicle: saline): 95 % of control

O=C(C(Br)C(Br)c1ccccc1)C(Br)C(Br)c1ccccc1 (stereo unspecified)
T/C [2]: 104 % of control
T/C [3]: 104 % of control
T/C [4]: 100 % of control

CC(=O)OCc1cc2cc(O)ccc2nc1C
T/C (dose: 25.0 mg/kg/injection, schedule: Q01DX009 (ip), vehicle: saline): 98 % of control
T/C (dose: 50.0 mg/kg/injection, schedule: Q01DX009 (ip), vehicle: saline): 107 % of control
T/C [5]: 111 % of control
T/C [6]: 101 % of control
T/C [7]: 110 % of control and 115 % of control
T/C [8]: 116 % of control
T/C [9]: 92 % of control and 110 % of control
T/C (dose: 400.0 mg/kg/injection, schedule: Q01DX009 (ip), vehicle: saline): 91 % of control
T/C [10]: 97 % of control and 104 % of control and 116 % of control

COc1ccc(NC(=O)Nc2ccccc2F)cc1
T/C (dose: 100.0 mg/kg/injection, schedule: Q01DX001 (ip), vehicle: saline with Tween-80): 95 % of control
T/C (dose: 200.0 mg/kg/injection, schedule: Q01DX001 (ip), vehicle: saline with Tween-80): 95 % of control
T/C (dose: 400.0 mg/kg/injection, schedule: Q01DX001 (ip), vehicle: saline with Tween-80): 95 % of control
